The target of experiment [1] is T1, hAPJ receptor (Homo sapiens, UniProt P35414).
T1 construct: expressed in transfected cells; host or cells: HEK293, transient transfection with PEI
T1 sequence (P35414 1-380): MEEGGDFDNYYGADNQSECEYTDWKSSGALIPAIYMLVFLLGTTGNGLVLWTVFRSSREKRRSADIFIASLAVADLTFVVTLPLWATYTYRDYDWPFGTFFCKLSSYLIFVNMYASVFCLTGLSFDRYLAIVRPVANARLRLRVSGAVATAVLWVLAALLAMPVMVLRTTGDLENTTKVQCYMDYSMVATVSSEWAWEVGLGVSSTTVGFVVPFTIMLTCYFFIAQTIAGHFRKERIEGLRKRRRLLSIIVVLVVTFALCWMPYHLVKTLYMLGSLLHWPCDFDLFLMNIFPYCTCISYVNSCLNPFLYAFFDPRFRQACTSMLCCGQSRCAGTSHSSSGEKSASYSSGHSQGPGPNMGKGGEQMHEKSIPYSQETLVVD
Nature of the experiment: BRET-based β-arrestin2 recruitment assay in HEK293 cells. The class given is cell-based. As to the method:
(§1) HEK293 cells were cultivated in high glucose DMEM medium having 10% FBS, 100 U/mL penicillin/streptomycin, 2 mM glutamine, and 20 mM HEPES at 37° C. in T175 flasks under humidified chamber at 5% CO2. […] Cells were then washed with phosphate-buffered saline (PBS) and 90 μL Hanks' balanced salt solution was added in each well. Then, cells were stimulated with analogs at concentrations ranging from 10^−5 M to 10^−11 M for 5 min at 37° C. (Gαi1) or for 30 min at room temperature (β-arrestin2). After stimulation, 5 μM of coelanterazine 400A was added to each well and the plate was read using the BRET^2 filter set of a GeniosPro plate reader (Tecan, Austria). The BRET ratio was determined as GFP10em/RlucIIem. Data were plotted and EC50 values were determined using GraphPad Prism 8. Each data point represents the mean±SEM of at least three different experiments each done in triplicate.
Background: In BRET a luciferase serves as donor, and the signal depends on an acceptor being close.

For experiment [2], the target named is T1, hAPJ receptor. Briefly: BRET-based Gαi1 activation assay in HEK293 cells. The class given is cell-based. The procedure:
as §1

The mark [3] stands for this setting: HEK293, Table V, read-out: ß-arr2 Emax.
[4] abbreviates: HEK293, Table V, read-out: Gαi1 Emax.

Numbered stars: 1 amine (or outer) side, 2 acyl side, 3 side chain; on linkers, the order of the positions; unused ones are H or OH. Bridge positions count the residues as written; N and C are the ends. Square brackets hold non-standard residues; d marks the D form. Peptide text beside a SMILES is read from it. * marks the point of attachment. X5 = O=C([C@H](Cc1cc(C2CCCC2)c(OCc2ccccc2)c(C2CCCC2)c1)N[*:1])[*:2]; Benzoyl(4-Br) = O=C(c1ccc(Br)cc1)*; pGlu = O=C1CC[C@@H](C(=O)O)N1; Nle = CCCC[C@H](N)C(=O)O; Bn = c1ccc(C*)cc1 Bounds are passed on as bounds.

What is called Emax is the greatest response seen or fitted, relative to the assay's reference. As to `CCCC[C@H](NC(=O)[C@@H]1CCCN1C(=O)CNC(=O)[C@H](CCCCN)NC(=O)[C@@H]1CCN(S(=O)(=O)c2ccccc2[N+](=O)[O-])CC=CC[C@H](NC(=O)[C@H](CCCNC(=N)N)NC(=O)[C@@H]2CCC(=O)N2)C(=O)N[C@@H](CCCNC(=N)N)C(=O)N[C@@H](CC(C)C)C(=O)N[C@@H](CO)C(=O)N1)C(=O)N1CCC[C@H]1C(=O)N[C@@H](Cc1ccccc1)C(=O)O` [Compound 16, Pyr-R-c[X-R-L-S-Alnb]c-K-G-P-Nle-P-F], the Emax on hAPJ receptor [1] (HEK293, read-out: ß-arr2 Emax) amounted to 98%; at hAPJ receptor [2] (HEK293, read-out: Gαi1 Emax) it was 102%. For `CCCC[C@H](NC(=O)[C@@H]1CCCN1C(=O)CNC(=O)[C@H](CCCCN)NC(=O)[C@@H]1CCNCC=CC[C@H](NC(=O)[C@H](CCCNC(=N)N)NC(=O)[C@@H]2CCC(=O)N2)C(=O)N[C@@H](CCCNC(=N)N)C(=O)N[C@@H](CC(C)C)C(=O)N[C@@H](CO)C(=O)N1)C(=O)N1CCC[C@H]1C(=O)N[C@@H](Cc1ccccc1)C(=O)O` [Compound 18, Pyr-R-c[X-R-L-S-Alb]c-K-G-P-Nle-P-F], the Emax at hAPJ receptor [1] (setting [3]) was 86%; on hAPJ receptor [2] (setting [4]), 100%. The matching figures for `CCCC[C@H](NC(=O)[C@@H]1CCCN1C(=O)CNC(=O)[C@H](CCCCN)NC(=O)[C@@H]1CCN(C)CC=CC[C@H](NC(=O)[C@H](CCCNC(=N)N)NC(=O)[C@@H]2CCC(=O)N2)C(=O)N[C@@H](CCCNC(=N)N)C(=O)N[C@@H](CC(C)C)C(=O)N[C@@H](CO)C(=O)N1)C(=O)N1CCC[C@H]1C(=O)N[C@@H](Cc1ccccc1)C(=O)O` [Compound 19, Pyr-R-c[X-R-L-S-Almb]c-K-G-P-Nle-P-F]: 90% and 102%. In the case of `CCCC[C@H](NC(=O)[C@@H]1CCCN1C(=O)CNC(=O)[C@H](CCCCN)NC(=O)[C@@H]1CC=CC[C@H](NC(=N)N)C(=O)N[C@@H](CCCNC(=N)N)C(=O)N[C@@H](CC(C)C)C(=O)N[C@@H](CO)C(=O)N1)C(=O)N1CCC[C@H]1C(=O)N[C@@H](Cc1ccccc1)C(=O)O` [Compound 23, Guanidine-c[X-R-L-S-X]c-K-G-P-Nle-P-F], the results for the Emax on hAPJ receptor [1] (setting [3]) and at hAPJ receptor [2] (setting [4]) were 92% and 103%, respectively.

As to `CCCC[C@H](NC(=O)[C@@H]1CCCN1C(=O)CNC(=O)[C@H](CCCCN)NC(=O)[C@@H]1CCN(S(=O)(=O)c2ccccc2[N+](=O)[O-])CC=CC[C@H](N)C(=O)N[C@@H](CCCNC(=N)N)C(=O)N[C@@H](CC(C)C)C(=O)N[C@@H](CO)C(=O)N1)C(=O)N1CCC[C@H]1C(=O)N[C@@H](Cc1ccccc1)C(=O)O` [Compound 28, NH2-c[X-R-L-S-Alnb]c-K-G-P-Nle-P-F], the figures for the Emax on hAPJ receptor [1] (setting [3]) and on hAPJ receptor [2] (setting [4]) were 82% and 106%, respectively. The matching figures for `CC(C)C[C@@H]1NC(=O)[C@H](CCCNC(=N)N)NC(=O)[C@@H](N)CC=CC[C@@H](C(=O)N[C@@H](CCCCN)C(=O)NCC(=O)N2CCC[C@H]2C(=O)N[C@H](Cc2ccc(OCc3ccccc3)cc2)C(=O)O)NC(=O)[C@H](CO)NC1=O` [Compound 44, NH2-c[X-R-L-S-X]c-K-G-P-(D-TyrOBn)]: 78% and 104%. The matching figures for `CC(C)C[C@@H]1NC(=O)[C@H](CCCNC(=N)N)NC(=O)[C@@H](N)CC=CC[C@@H](C(=O)N[C@@H](CCCCN)C(=O)NCC(=O)N2CCC[C@H]2C(=O)N[C@H](Cc2ccc(O)cc2)C(=O)O)NC(=O)[C@H](CO)NC1=O` [Compound 45, NH2-c[X-R-L-S-X]c-K-G-P-(D-Tyr)]: 54% and 100%.

In general, EC50 refers to the concentration giving half of the maximal effect. A low value points to a more potent agent. Molecule `CCCC[C@H](NC(=O)[C@@H]1CCCN1C(=O)[C@@H]1CCCCNC(=O)CC[C@H](NC(=O)[C@H](CC(C)C)NC(=O)[C@H](CCCNC(=N)N)NC(=O)[C@@H]2CCCN2C(=O)[C@H](CCCNC(=N)N)NC(=O)[C@H](CCC(N)=O)NC(=O)[C@H](CCCNC(=N)N)NC(=O)[C@H](CCCNC(=N)N)NC(=O)[C@H](Cc2ccccc2)NC(=O)[C@H](CCCCN)NC(C)=O)C(=O)N[C@@H](Cc2c[nH]cn2)C(=O)N[C@@H](CCCCN)C(=O)N1)C(=O)N1CCC[C@H]1C(=O)N[C@@H](Cc1cc(C2CCCC2)c(OCc2ccccc2)c(C2CCCC2)c1)C(=O)O` [Compound 65, Ac-K-F-R-R-Q-R-P-R-L-[E-H-K-K]-P-Nle-P-dcypTyrOBn] (Ac-KFRRQRPRLEHKKP[Nle]P[X5]-OH; lactam 10-13) showed an EC50 at hAPJ receptor [1] of more than 10000 nM.

For `CCCC[C@H](NC(=O)[C@@H]1CCCN1C(=O)[C@@H]1CCCCNC(=O)CC[C@H](NC(=O)[C@H](CC(C)C)NC(=O)[C@H](CCCNC(=N)N)NC(=O)[C@@H]2CCCN2C(=O)[C@H](CCCNC(=N)N)NC(=O)[C@H](CCC(N)=O)NC(=O)[C@H](CCCNC(=N)N)NC(=O)[C@H](CCCNC(=N)N)NC(=O)[C@H](Cc2ccccc2)NC(=O)[C@H](CCCCN)NC(C)=O)C(=O)N[C@@H](Cc2c[nH]cn2)C(=O)N[C@@H](CCCCN)C(=O)N1)C(=O)N1CCC[C@H]1C(=O)N[C@@H](Cc1ccc(OCc2ccccc2)cc1)C(=O)O` [Compound 66, Ac-K-F-R-R-Q-R-P-R-L-[E-H-K-K]-P-Nle-P-TyrOBn] (Ac-KFRRQRPRLEHKKP[Nle]PY(Bn)-OH; lactam 10-13), on hAPJ receptor [1], the response was half-maximal at 334 nM (EC50). This lies in the sub-micromolar range. Same read-out and setting: under `CCCC[C@@H]1NC(=O)[C@@H](NC(=O)[C@H](CCCNC(=N)N)NC(=O)[C@H](CCCNC(=N)N)NC(=O)[C@@H]2CCC(=O)N2)CCC(=O)NCCCC[C@@H](C(=O)N[C@@H](Cc2c[nH]cn2)C(=O)N[C@@H](CO)C(=O)N[C@@H](CCCNC(=N)N)C(=O)N[C@H](C(=O)N2CCC[C@H]2C(=O)N[C@@H](Cc2ccccc2)C(=O)N2CCC[C@H]2C(=O)O)C(C)C)NC(=O)[C@@H]2CCCN2C1=O` [Compound 75, Pyr-R-R-c[E-Nle-P-K]-H-S-R-V-P-F-P] ([pGlu]RRE[Nle]PKHSRVPFP-OH; lactam 4-7) stands 2020 ± 479 nM; under `CC(C)C[C@@H]1NC(=O)[C@@H]2CCCN2C(=O)[C@@H](NC(=O)[C@H](CO)NC(=O)[C@H](CCCNC(=N)N)NC(=O)[C@H](CCCNC(=N)N)NC(=O)[C@@H]2CCC(=O)N2)CCC(=O)NCCCC[C@@H](C(=O)N[C@@H](CCCNC(=N)N)C(=O)N[C@H](C(=O)N2CCC[C@H]2C(=O)N[C@@H](Cc2ccccc2)C(=O)N2CCC[C@H]2C(=O)O)C(C)C)NC(=O)[C@H](Cc2c[nH]cn2)NC1=O` [Compound 77, Pyr-R-R-S-c[E-P-L-H-K]-R-V-P-F-P], 247 ± 62 nM. On to `CC(C)C[C@@H]1NC(=O)[C@@H]2CCCN2C(=O)[C@@H](NC(=O)[C@H](CO)NC(=O)[C@H](CCCNC(=N)N)NC(=O)[C@H](CCCNC(=N)N)NC(=O)c2ccc(Br)cc2)CCC(=O)NCCCC[C@@H](C(=O)N[C@@H](CCCNC(=N)N)C(=O)N[C@H](C(=O)N2CCC[C@H]2C(=O)N[C@@H](Cc2ccccc2)C(=O)N2CCC[C@H]2C(=O)O)C(C)C)NC(=O)[C@H](Cc2c[nH]cn2)NC1=O` [Compound 89, 4BrBz-R-R-S-[E-P-L-H-K]-R-V-P-F-P] ({Benzoyl(4-Br)}-RRSEPLHKRVPFP-OH; lactam 4-8), for which, on hAPJ receptor [1], the EC50 stood at 50 ± 4 nM. Same read-out and setting: the value for `CC(C)C[C@@H]1NC(=O)[C@@H]2CCCN2C(=O)[C@@H](NC(=O)[C@H](CO)NC(=O)[C@H](CCCNC(=N)N)NC(=O)[C@H](CCCCNC(=N)N)NC(=O)[C@@H]2CCC(=O)N2)CCC(=O)NCCCC[C@@H](C(=O)N[C@@H](CCCNC(=N)N)C(=O)N[C@H](C(=O)N2CCC[C@H]2C(=O)N[C@@H](Cc2ccccc2)C(=O)N2CCC[C@H]2C(=O)O)C(C)C)NC(=O)[C@H](Cc2c[nH]cn2)NC1=O` [Compound 90, Pyr-hR-R-S-[E-P-L-H-K]-R-V-P-F-P] was 394 ± 47 nM.

These data come from patent publication US20240343761A1, “APELINERGIC MACROCYCLES AND USES THEREOF” (priority 2021, published 2024).
